These results are taken from patent US20240058335A1, “METHODS FOR TREATMENT OF CANCER USING ABL INHIBITORS AND DRUGS TARGETING THE MEVALONATE PATHWAY” (Duke University, priority 2021, published 2024).

Common to all, as to type: cell-based, human
One assay has as its system PC9 GR4 cells. As to the kind of experiment: Cell viability dose-response assay (CellTiter-Glo), IC50 calculation. As to conditions: PC9 GR4; dose-response assay; read-out: Calculated IC50.
The test system of another assay is H358 cells. Described as above. Conditions: H358; dose-response assay; read-out: Calculated IC50.
Assay [1] has as its system lung cancer cells (PC9, PC9 GR4, H460, H358). The assay can be described thus: Seahorse XF Analyzer Mito Stress Test (OCR: basal respiration, maximal respiration, ATP production). Conditions: IC50 doses, 24 hours; PC9, PC9 GR4, H460, H358. The text has this:
(FIGS. 2A-2D) Seahorse XF Analyzer Mito Stress Test analysis of mitochondrial basal respiration, maximal respiration, and ATP production as measured by changes in oxygen consumption rate (OCR). […] (FIG. 2E) Mitochondrial basal respiration, maximal respiration, and ATP production as measured by Seahorse XF Analyzer's Mito Stress Test for PC9 cells harboring shRNAs against ABL1/ABL2 (shAA) and non-targeting control (shSCR). (FIGS. 2F-2G) Mitochondrial ROS (MitoROS) release as measured by FACS analysis of median fluorescent intensity (MFI) using Mitosox probe. […] Data are mean±SEM. […] Seahorse XF Analyzer Mito Stress Test analysis of mitochondrial basal respiration, maximal respiration, and ATP production as measured by changes in oxygen consumption rate (OCR) in the indicated lung cancer cells: (FIG. 8A) PC9; (FIG. 8B) PC9 GR4; (FIG. 8C) H460. […] Doses correspond to IC50 dose for each drug in the corresponding cell line. In each graph, for each of Basal Respiration, Maximal Respiration, and ATP production, data is shown from left to right for DMSO, GNF5, and Nilotinib. […] Cells were treated with IC50 doses for 24 hours (n=3). Data are mean±SEM. […] SEAHORSE MEASUREMENTS. Basal and maximal oxygen consumption rate and ATP production were measured using a Mito Stress test Kit and XF96 Extracellular Flux Analyzer (Seahorse Bioscience), according to manufacturer's instructions. Cells were plated in XF96 plates at 10,000 cells per well on Day 0. […] The plate was incubated in a non-CO2 incubator at 37° C. for 1 hr to equilibrate.

For the molecule `O=C(NCCO)c1cccc(-c2cc(Nc3ccc(OC(F)(F)F)cc3)ncn2)c1` [GNF5], the IC50 is 10 µM in the assay on PC9 GR4 cells and 15 µM with H358 cells. In addition, the “mitochondrial function (basal respiration, maximal respiration, ATP production; OCR)” value in assay [1] was “greatly decreased”.
